35 molecules from patent US7084140B2, “Arylglycinamide derivatives, method of producing said derivatives and pharmaceutical compositions containing these compounds” (Boehringer Ingelheim Pharma GmbH & Co. KG, priority 1996, dated 2006) can be followed below.

The structures appear in SMILES notation. pKi: −log10 of the molar value. Where a name gives a salt, the structure may show the parent alone.

One test has as its target T1, NK1 (Cavia porcellus, UniProt P30547).
T1 construct: from tissue; host or cells: whole animal (anaesthetised guinea pig)
As to the kind of experiment: Inhibition of lowering of blood pressure caused by NK1 in anaesthetised guinea pigs. The test is classed as in vivo. To be noted: 1 mg/kg administered into the duodenum, NK1-agonist [βAla4, Sar9, Met(O2)11]SP(4-11) 0.2 μmol/kg i.v. The protocol:
Inhibition of lowering of blood pressure caused by NK1 in anaesthetised guinea pigs.
Guinea pigs weighing 300–500 grams were anaesthetised with pentobarbital (50 mg/kg i.p.), intubated and artificially ventilated. They were ventilated with 10 ml/kg of air at a frequency of 60 breaths per minute. The carotid artery was canulated and the arterial blood pressure was recorded. A polyethylene tube was inserted into the jugular vein for the intravenous supply of substances.
A temporary reduction in blood pressure was brought about at intervals of 10 minutes by intravenous administration of the NK1-agonist [βAla^4, Sar^9, Met (O2)^11]Sp(4-11)
[drawing 30] in a dose of 0.2 μmol/kg. After the blood pressure thus produced had been measured, the test compound was introduced into the duodenum and the NK1-agonist was again injected every 10 minutes.
The results were expressed as a % inhibition of the reduction in blood pressure caused by the NK1-agonist specified.

Test [1] deals with T2, NK1-receptor (substance P-receptor) (Homo sapiens, UniProt P25103).
T2 construct: expressed in transfected cells; host or cells: IM-9 human lymphoblastoma cells
As to the kind of experiment: Receptor affinity for the NK1-receptor, displacement of 125I-labelled substance P on IM-9 cells. The test is classed as binding. To be noted: human lymphoblastoma cells (IM-9) with cloned NK1-receptors. As to the method: The receptor affinity for the NK1-receptor (substance P-receptor) is determined on human lymphoblastoma cells (IM-9) with cloned NK1-receptors, by measuring the displacement of ^125I-labelled substance P. The K1-values thus obtained show the efficacy of the compounds: […]

T2 sequence (P25103 whole entry): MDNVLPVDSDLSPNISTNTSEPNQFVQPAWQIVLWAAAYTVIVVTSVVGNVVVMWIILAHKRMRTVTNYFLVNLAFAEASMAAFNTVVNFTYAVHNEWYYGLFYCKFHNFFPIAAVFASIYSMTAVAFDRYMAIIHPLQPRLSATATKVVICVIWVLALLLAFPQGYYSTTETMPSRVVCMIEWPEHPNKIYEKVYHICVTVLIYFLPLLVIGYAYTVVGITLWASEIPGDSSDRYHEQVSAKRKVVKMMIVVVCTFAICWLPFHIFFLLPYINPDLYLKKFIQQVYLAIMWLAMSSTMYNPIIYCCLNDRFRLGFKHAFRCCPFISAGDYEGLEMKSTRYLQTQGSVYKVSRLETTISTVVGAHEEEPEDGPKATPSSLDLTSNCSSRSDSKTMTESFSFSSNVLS
T1 sequence (P30547 whole entry): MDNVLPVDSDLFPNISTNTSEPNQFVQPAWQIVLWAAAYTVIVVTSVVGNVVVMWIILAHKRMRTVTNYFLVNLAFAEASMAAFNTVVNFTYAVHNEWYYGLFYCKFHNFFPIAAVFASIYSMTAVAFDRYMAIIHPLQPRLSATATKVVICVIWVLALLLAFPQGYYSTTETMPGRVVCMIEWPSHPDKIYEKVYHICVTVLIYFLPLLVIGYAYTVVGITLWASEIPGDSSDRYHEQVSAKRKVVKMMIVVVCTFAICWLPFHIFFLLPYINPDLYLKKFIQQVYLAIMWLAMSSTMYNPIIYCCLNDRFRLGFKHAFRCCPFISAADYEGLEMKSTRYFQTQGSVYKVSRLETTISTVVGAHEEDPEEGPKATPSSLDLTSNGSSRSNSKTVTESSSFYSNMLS

Turning to `CC(C)N1CCN(C(C(=O)N(C)CCc2cc(C(F)(F)F)cc(C(F)(F)F)c2)c2ccccc2)CC1` (racemic) [Example 1, (R,S)-1-i-propyl-4-[2-phenylacetic acid-N-methyl-N-(3,5-bistrifluoromethylphenylethyl)]-amide dihydrochloride], the “% inhibition of the reduction in blood pressure caused by the NK1-agonist” value at NK1 came to 80%. In test [1], this molecule gave a pKi of 8.92. In turn, `CN(CCc1cc(C(F)(F)F)cc(C(F)(F)F)c1)C(=O)C(c1ccccc1)N1CCNCC1` (stereo not drawn) [Example 2] gave a pKi in test [1] of 9.00.

As to `CN(CCc1cc(C(F)(F)F)cc(C(F)(F)F)c1)C(=O)C(c1ccccc1)N1CCN(c2ncccn2)CC1` (stereo not drawn) [Example 3], the negative-log Ki (pKi) in test [1] is 7.72. Same read-out and setting: to `CN1CCCN(C(C(=O)N(C)CCc2cc(C(F)(F)F)cc(C(F)(F)F)c2)c2ccccc2)CC1` (stereo not drawn) [Example 4] belongs 8.85; to `CN(CCc1cc(C(F)(F)F)cc(C(F)(F)F)c1)C(=O)C(c1ccccc1)N1CCC(N(C)C)CC1` (stereo not drawn) [Example 5], 8.82; to `CN1CCN(C2CCN(C(C(=O)N(C)CCc3cc(C(F)(F)F)cc(C(F)(F)F)c3)c3ccccc3)CC2)CC1` (stereo not drawn) [Example 8], 8.74. Consider `CN1CCC(N2CCN(C(C(=O)N(C)CCc3cc(C(F)(F)F)cc(C(F)(F)F)c3)c3ccccc3)CC2)CC1` (stereo not drawn) [Example 9], for which the pKi in test [1] is 8.60. Still for that read-out and setting: to `CN(CCc1cc(C(F)(F)F)cc(C(F)(F)F)c1)C(=O)C(c1ccccc1)N1CCN(CC(=O)N2CCCC2)CC1` (stereo not drawn) [Example 11] belongs 8.42. `CN(CCc1cc(C(F)(F)F)cc(C(F)(F)F)c1)C(=O)C(c1ccccc1)N1CCC(N2CCN(CC(N)=O)CC2)CC1` (stereo not drawn) [Example 12] gave a pKi in test [1] of 8.30. On to `CN(CCc1cc(C(F)(F)F)cc(C(F)(F)F)c1)C(=O)C(c1ccccc1)N1CCC(N2CCC(N3CCCCC3)CC2)CC1` (stereo not drawn) [Example 13], for which, in test [1], the negative logarithm of the Ki (pKi) is 8.62. Still for that read-out and setting: to `CCN(CC)C1CCN(C(C(=O)N(C)CCc2cc(C(F)(F)F)cc(C(F)(F)F)c2)c2ccccc2)CC1` (stereo not drawn) [Example 15] belongs 9.01. In test [1], `CN(CCc1cc(C(F)(F)F)cc(C(F)(F)F)c1)C(=O)C(c1ccccc1)N1CCC(N(C)CCO)CC1` (stereo not drawn) [Example 16] showed a negative logarithm of the Ki (pKi) of 9.05. Consider `CN(CCc1cc(C(F)(F)F)cc(C(F)(F)F)c1)C(=O)C(c1ccccc1)N1CCC(N)CC1` (stereo not drawn) [Example 17], for which the negative logarithm of the Ki (pKi) in test [1] was 8.11. Same read-out and setting: to `CNC1CCN(C(C(=O)N(C)CCc2cc(C(F)(F)F)cc(C(F)(F)F)c2)c2ccccc2)CC1` (stereo not drawn) [Example 18] belongs 9.02; to `CN(CCc1cc(C(F)(F)F)cc(C(F)(F)F)c1)C(=O)C(c1ccccc1)N1CCC(NC2CCCC2)CC1` (stereo not drawn) [Example 19], 8.93. The same measure, in the same setting: to `CC(C)NC1CCN(C(C(=O)N(C)CCc2cc(C(F)(F)F)cc(C(F)(F)F)c2)c2ccccc2)CC1` (stereo not drawn) [Example 20] belongs 8.70. Still for that read-out and setting: then `CN(CCc1cc(C(F)(F)F)cc(C(F)(F)F)c1)C(=O)C(c1ccccc1)N1CCC(O)CC1` (stereo not drawn) [Example 22], with 8.66; and `CN(CCc1cc(C(F)(F)F)cc(C(F)(F)F)c1)C(=O)C(c1ccccc1)N1CCC(NCC(=O)N2CCOCC2)CC1` (stereo not drawn) [Example 23], with 8.60. In the case of `C=CCN1CCN(C(C(=O)N(C)CCc2cc(C(F)(F)F)cc(C(F)(F)F)c2)c2ccccc2)CC1` (stereo not drawn) [Example 24], in test [1], the pKi was 8.66. Same read-out and setting: to `C#CCN1CCN(C(C(=O)N(C)CCc2cc(C(F)(F)F)cc(C(F)(F)F)c2)c2ccccc2)CC1` (stereo not drawn) [Example 25] belongs 8.22; to `CN(CCc1cc(C(F)(F)F)cc(C(F)(F)F)c1)C(=O)C(c1ccccc1)N1CCN(CCO)CC1` (stereo not drawn) [Example 26], 8.80.

With `CN(C)CCN1CCN(C(C(=O)N(C)CCc2cc(C(F)(F)F)cc(C(F)(F)F)c2)c2ccccc2)CC1` (stereo not drawn) [Example 28], the pKi in test [1] was 8.89.

In the case of `COCCN1CCN(C(C(=O)N(C)CCc2cc(C(F)(F)F)cc(C(F)(F)F)c2)c2ccccc2)CC1` (stereo not drawn) [Example 30], in test [1], the pKi is 8.74. The same measure, in the same setting: then `CC(C)N1CCN(C(C(=O)N(C)CCc2cc(C(F)(F)F)cc(C(F)(F)F)c2)c2ccccc2)CC1=O` (stereo not drawn) [Example 32], with 8.89. Same read-out and setting: to `CC(C)N1CCN(C(C(=O)NC(C)(C)Cc2cc(C(F)(F)F)cc(C(F)(F)F)c2)c2ccccc2)CC1` (stereo not drawn) [Example 33] belongs 8.13; to `CC(C)(Cc1cc(C(F)(F)F)cc(C(F)(F)F)c1)NC(=O)C(c1ccccc1)N1CCNCC1` (stereo not drawn) [Example 34], 8.54; to `COc1ccc(C(C(=O)N(C)CCc2cc(C(F)(F)F)cc(C(F)(F)F)c2)N2CCNCC2)cc1OC` (stereo not drawn) [Example 47], 8.77. For the molecule `CN(CCc1cc(C(F)(F)F)cc(C(F)(F)F)c1)C(=O)C(c1ccccc1)N1CCC(N(CCO)CCO)CC1` (stereo not drawn) [Example 55], the negative-log Ki (pKi) in test [1] was 8.90. Turning to `CCCN1CCN(C(C(=O)N(C)CCc2cc(C(F)(F)F)cc(C(F)(F)F)c2)c2ccccc2)CC1` (stereo not drawn) [Example 63], the pKi in test [1] was 8.85. Still for that read-out and setting: to `CN1CCN(C(C(=O)N(C)CCc2cc(C(F)(F)F)cc(C(F)(F)F)c2)c2ccccc2)CC1` (stereo not drawn) [Example 64] belongs 8.96.

As for `COc1ccc(C(C(=O)N(C)CCc2cc(C(F)(F)F)cc(C(F)(F)F)c2)N2CCN(C(C)C)CC2)cc1OC` (stereo not drawn) [Example 65], the pKi in test [1] was 8.24. Same read-out and setting: then `CC(C)N1CCN(C(C(=O)N(C)CCc2cc(C(F)(F)F)cc(C(F)(F)F)c2)c2cccc3c2OCO3)CC1` (stereo not drawn) [Example 73], with 8.70; and `CC(C)N1CCN(C(C(=O)N(C)CCc2cc(C(F)(F)F)cc(C(F)(F)F)c2)c2ccccc2)CC1` (stereo not drawn) [Example 74], with 8.82; and `CN(CCc1cc(C(F)(F)F)cc(C(F)(F)F)c1)C(=O)[C@H](c1ccccc1)N1CCNCC1` [Example 75], with 9.36. For `CN(CCc1cc(C(F)(F)F)cc(C(F)(F)F)c1)C(=O)C(c1ccccc1)N1CCC(N(C)CCCCO)CC1` (stereo not drawn) [Example 76], the negative-log Ki (pKi) in test [1] was 8.70.
